# Laboratory results taken from patent US20230203485A1, “METHODS FOR MODULATING MHC-I EXPRESSION AND IMMUNOTHERAPY USES THEREOF” (Dana-Farber Cancer Institute, Inc., priority 2020, published 2023).
# System: HLA class I bound peptides of MCC cell lines
# Assay: HLA class I immunoprecipitation and LC-MS/MS immunopeptidome of MCC tumors and cell lines +/- IFNγ
# Format: cell-based, human
# From the text: CL=cell line (left). Correlation heatmap of peptide sequences between MCC lines at baseline and after IFN-γ treatment in motif space (right).
# HLA molecules are immunoprecipitated from tumor and cell line material, peptides are eluted from HLA complex and analyzed by LC-MS/MS. After database searching, peptides are assigned to their most likely allele by prediction in HLAthena.
# Up to 40 million MCC cells were immunoprecipitated. Briefly, MCC cells were harvested and lysed in ice-cold lysis buffer containing […] (pH 8.0), 1 mM EDTA (pH 8.0), 0.1M sodium chloride, Triton X-100, 0.06M octyl 3-d-glucopyranoside, 100 U/mL DNAse I, 1 mM phenylmethanesulfonyl fluoride (all from Sigma Aldrich), protease inhibitor cocktail (Roche Diagnostics, Indianapolis, Ind.). Cell lysates were centrifuged at 12,700 rpm at 4° C. for 22 min. […] Peptides of up to three IPs were combined, acid eluted, and analyzed using LC/MS/MS as described previously (Abelin, Keskin Immunity). […] Peptides were eluted in a 6-30% gradient (EasyLC 1000 or 1200, ThermoFisher Scientific) and analyzed on a QExactive Plus or Fusion Lumos (ThermoFisher Scientific). […]
# For detection of the large T antigen peptide, 3 Ips of a 367 Cell line treated with IFNγ were pooled, acid eluted, fractionated using stage tip basic reverse phase separation and fractions were analyzed on a Fusion Lumos equipped with a FAIMSpro interface (Klaeger et al., in preparation).
# Mass spectra were interpreted using Spectrum Mill software package v7.1 pre-Release (Agilent Technologies, Santa Clara, Calif.). […] MS/MS spectra were searched against a protein sequence database that contained 98,298 entries, including all UCSC Genome Browser genes with hg19 annotation of the genome and its protein coding transcripts (63,691 entries), common human virus sequences (30,181 entries), recurrently mutated proteins observed in tumors from 26 tissues (4,167 entries), 264 common laboratory contaminants as well as protein sequences containing somatic mutations detected in MCC cell lines. […]
Substance,"number of detected peptides presented on HLA Class I (tumor derived cell lines, FIG. 3B)","abundance of class I bound peptides, median fold increase (across 4 cell lines, after IFN-γ stimulation vs baseline)",frequencies of peptides mapping to each HLA allele (cell lines exposed or not to IFN-γ)
"IFN-y: type II interferon, recombinant human, used to treat MCC cells",increased,–,–
IFN-γ: interferon gamma used to stimulate MCC cell lines,–,25 fold,increase in HLA-B-presented peptides
